# In patent publication US9034826B2, “Use of epidermal growth factor for the morphofunctional restoration of peripheral nerves in diabetic neuropathy” (Centro de Ingenieria Genetica y Biotecnologia, priority 2006, dated 2015):
# What was measured:
# diabetic rats [1] = experiment: Sensory conduction velocity in the tail, prevention study (Example 1); assay type: in vivo, Wistar rats; conditions: 75 μg EGF/ml, day 60
# Experimental: (§1) Male Wistar, with 200-250 grams of body weight, received a subcutaneous injection of streptozotocin, at 75 mg/kg in sodium citrate buffer. Water was then replaced by a 10% sucrose solution during the next 24 h, to prevent deaths caused by hypoglycemia. Glucose levels in blood were monitored every morning during the next 72 hours after the injection. Only animals with sustained glucose values above 15 mmol/L were used. Rats were housing at 4 per cage and fed in the conventional way. A concurrent group of other 80 rats received citrate buffer without streptozotocin and was handled in a similar fashion to the diabetic group. The average value for glycemia during the 72 hours in this group was 5.87 mmol/L.
# (§2) All treatments were conducted during 8 weeks, starting one week after streptozotocin injection. The composition used contained 75 μg of human recombinant EGF/ml. Several types of observations were conducted in the animals under study:
# Fifteen animals were used in each experimental group. In diabetic neuropathy conduction velocity is generally diminished.
# (§3) Distal supra-maximal stimulation in the sciatic-tibial route using bipolar electrodes is was used to study motor conduction. Determination of the conduction velocity in the sensory routes was carried out by applying a stimulus at a proximal point in the tail and measure it 3 cm away.
# diabetic rats [2] = experiment: Conduction velocity of motor fibers, reversion study (Example 2); assay type: in vivo, Wistar rats; conditions: established diabetic neuropathy, 100 μg EGF in 1 ml i.p. 3 days a week for one month, day 120 after induction of diabetes
# Experimental: as §3
# (§4) The aim of this study was to evaluate the neurorestoration effect of the pharmaceutical composition. Male Wistar rats between 200-250 grams of body is weight received a subcutaneous injection of streptozotocin at 75 mg/kg in sodium citrate buffer, and were allowed to evolve until 120 days after disease induction. All rats used in this experiment had shown sustained glucose levels above 15 mmol/L. Animals were handled and fed as previously described. A concurrent control group was set, where animals received saline instead of streptozotocin. […] After this period an electrophysiological characterization of all rats were done and animals were split in two random treatment groups:
# (§5) Group II. Animals received the pharmaceutical composition with 100 μg of EGF in 1 ml, 3 days a week, by intraperitoneal route.
# (§6) To check the effect of the pharmaceutical composition on the restoration of sensory and motor fibers the conduction velocity of an electric impulse was measured at day 120 after induction of diabetes, after treating the animals with the pharmaceutical composition or saline. […]
# [3] = tested on: Redox state in fragments from the sciatic nerve; experiment: Redox profile in fragments from the sciatic nerve, prevention study (Example 1); assay type: in vivo, Wistar rats
# Experimental: as §1, §2
# Once the treatment was concluded, animals were sacrificed at day 70 after induction of diabetes, 10 days after the last dose was given, and the analysis described above is was completed. Animals were sacrificed by an overdose of anesthesia and perfused with saline buffer pH 7.4. A total of ten animals per experimental group were included for histomorphometric studies, and an equivalent number of rats were used for biochemical determinations. In both systems the sciatic nerves from both limbs were dissected; fragments were kept at −70° C. until processed. The samples taken for histological and/or histomorphometric studies were stained with hematoxilin/eosin and toluidine blue. At least five fragments of the same nerve were quantitatively studied using MADIP program. The fragments were included in blocks of celloidine and gelatin, and those blocks were horizontal and transversally sliced. The following histological indicators were evaluated: • Total number of blood vessels (in epineural/perineural) in 10 microscopic fields using 10× as constant magnification in longitudinal cuts of the nerve. • Percentage of demyelinated fibers. Evaluated by averaging the values per microscopic field (×20, at least five fields). • Percentage of myelin or non-myelin fibers with lesions (dilated or distorted) per microscopic field (×20, at least five fields). • Percentage of endoneurial collagenization (moderated: 25 to 50%; severe: more than 50% of the endoneurial area in transversal slices, and at least three different sections.
# Ten animals per experimental group were used to conduct biochemical determinations in the fragments of sciatic nerve collected. The biochemical parameters studied were the following:
# Redox Profile: • Activity of total Superoxide Dismutase enzyme (tSOD). • Activity of catalase enzyme. • Intra-axonal accumulation of total hydroperoxides (HPT). • Intra-axonal accumulation of malonyldialdehyde (MDA).
# Lipoprotein Lipase (LPL) = experiment: Lipoprotein lipase (LPL) enzymatic activity in sciatic nerve fragments, prevention study (Example 1); assay type: in vivo, Wistar rats
# Experimental: as §1, §2
# Fragments of the nerve from each animal were incubated together with 3 μg/ml heparin in Krebs-Ringer buffer at 37° C. for 50 minutes. Aliquots from these samples were then incubated in the presence of [^14C] triolein-phosphatidylcholine. ^14C labeled fatty acids were quantified by the classic methods. LPL activity was expressed in nanomoles of released fatty acids (RFA) per minute and gram of tissue.
# diabetic animals = experiment: Findings in diabetic animals after injection or infiltration of the composition (summary); assay type: in vivo; conditions: after three systemic injections or local infiltrations at the periphery of the nerve trunks
# diabetic rats [4] = experiment: Sensory conduction velocity, reversion study (Example 2); assay type: in vivo, Wistar rats; conditions: established diabetic neuropathy, 100 μg EGF in 1 ml i.p. 3 days a week for one month, day 120 after induction of diabetes
# Experimental: as §3, §4, §5, §6
# diabetic rats [5] = experiment: Nociceptive threshold (NCT) pain test, reversion of established diabetic neuropathy (Example 2); assay type: in vivo, Wistar rats; conditions: 100 μg EGF in 1 ml i.p. 3 days a week for one month, day 120 after induction of diabetes
# Experimental: The pain test, by application of an increasing pressure in the tail, was carried out at days 28 and 56 after initiation of the treatment, using 10 animals per each one of the experimental groups. NCT, expressed in grams, was determined by using an Ugo Basile type analgesimeter to apply a gradually increasing pressure to the tail of the animals until they developed a withdrawal reflex. In human diabetic neuropathy the nociceptive threshold is reduced.
# as §4
# Group II. Animals received the pharmaceutical composition with 100 μg of EGF in 1 ml, 3 days a week, by intraperitoneal route. […]
# [6] = Treatment group 1 (once weekly i.p., 8 weeks)
# [7] = Treatment group 3 (three times a week i.p., 8 weeks)
substance,measurement,setting,value
"EGF containing pharmaceutical composition: Composition with human recombinant EGF: 75 μg/ml in Example 1, 100 μg in 1 ml in Example 2, given intraperitoneally",SCV (sensitive conduction velocity),diabetic rats [1]; 1 ml i.p. once weekly (Treatment group 1),38 ± 6 m/s
same,SCV (sensitive conduction velocity),diabetic rats [1]; 1 ml i.p. three times a week (Treatment group 3),44 ± 9 m/s
same,Velocity (conduction velocity of motor fibers),diabetic rats [2],54.8 ± 1.66 m/s
same,Catalase activity,[3]; [6],"274.60 ± 52.3 units per milligram, of protein per minute"
same,HPT (total hydroperoxides),[3]; [6],143.05 ± 1.98 nmol/mg of protein
same,MDA (malonyldialdehyde),[3]; [6],0.24 ± 0.04 nmol/mg of protein
same,tSOD (total Superoxide Dismutase activity),[3]; [6],"958.17 ± 244.61 units per milligram, of protein per minute"
same,Catalase activity,[3]; [7],"37.62 ± 8.13 units per milligram, of protein per minute"
same,HPT (total hydroperoxides),[3]; [7],25.15 ± 1.81 nmol/mg of protein
same,MDA (malonyldialdehyde),[3]; [7],0.08 ± 0.02 nmol/mg of protein
same,tSOD (total Superoxide Dismutase activity),[3]; [7],"2102.83 ± 112.67 units per milligram, of protein per minute"
same,LPL activity in the sciatic nerve,Lipoprotein Lipase (LPL); [6],3.75 ± 2.2 nmoles RFA/min/g
same,LPL activity in the sciatic nerve,Lipoprotein Lipase (LPL); [7],5.41 ± 1.83 nmoles RFA/min/g
same,Axon edema,diabetic animals,Reductions in axon edema
same,Axonal neurofilaments,diabetic animals,Preservation of axonal neurofilaments
same,Conduction velocity of motor fibers,diabetic animals,Normalization of conduction velocity of motor fibers
same,Endoneurial collagenization,diabetic animals,Diminution of endoneurial collagenization
same,Integrity of the myelin sheath of the sciatic nerve,diabetic animals,Improvement in the integrity of the myelin sheath of the sciatic nerve
same,Vasa nervorum,diabetic animals,Integrity of the vasa nervorum
same,"Velocity (sensitive conduction velocity, SCV)",diabetic rats [4],59.42 ± 3.35 m/s
same,UNC (NCT test),diabetic rats [5],80 ± 5 grams
